In US7589186B2, “Isolated hOAT polynucleotide” (priority 1998, dated 2009):

Legend:
hOAT = hOAT (Homo sapiens, UniProt Q4U2R8); experiment: Uptake of antiviral nucleotides (ADV, CDV, cCDV) in CHO-hOAT versus CHO cells; details: for Vmax of uptake by CHO-hOAT / accumulation in CHO-hOAT (in words): CHO-hOAT cells
Experimental: pIRES-hOAT plasmid was transfected into CHO-K1 cells (ATCC CCL61) growing in F-12 nutrient mixture supplemented with 10% fetal bovine serum, 100 U/ml penicillin, and 100 μg/ml streptomycin. 24 hours before transfection, approximately 6×10^6 CHO-K1 cells were seeded into 100-mm Petri dish. At the time of transfection, media was aspirated and 6 ml of fresh media containing 12 μg of pIRES-hOAT and 60 μg of Cytofectin GSV cationic lipid (Glen Research, Sterling, Va.) was added to the cells. Following overnight incubation, selection of stable transformants started in phenol red-free F-12 nutrient mixture containing fetal bovine serum, penicillin and streptomycin as above, plus 1 mg/ml G418 (CLONTECH). […] For the PAH uptake assay, the cells were seeded into 12-well plates at the density of 2×10^5 cell/well. After 48 hours, growth media was aspirated and the cells were washed twice with phosphate buffered saline (PBS). […] After 90 min incubation at 37° C. in the transport buffer, the cells were washed 3-times with ice-cold PBS (2 ml/well) and lysed directly on the plate in the presence of 0.3% Triton X-100 (0.5 ml/well) for 20 min at room temperature. Plates were washed with additional 0.5 ml/well of Triton X-100, the lysate and wash were combined, scintillation fluid was added, and the radioactivity counted.
(§1) Uptake and cytotoxicity of ADV in the two cell lines was compared.

CHO-hOAT cells = experiment: Cytotoxicity in CHO-hOAT compared to CHO cells; format: cell-based, Chinese hamster; details: for fold more cytotoxic in CHO-hOAT compared to CHO cells: without probenecid
From the text: as §1

[1] = substrate: Nc1ncnc2c1ncn2CCOCP(=O)(O)O; experiment: cells, lysate or membranes; details: other: CHO-hOAT cells; pH 7.2; 37.0 °C
Experimental: (§2) pIRES-hOAT plasmid was transfected into CHO-K1 cells (ATCC CCL61) growing in F-12 nutrient mixture supplemented with 10% fetal bovine serum, 100 U/ml penicillin, and 100 μg/ml streptomycin. 24 hours before transfection, approximately 6×10^6 CHO-K1 cells were seeded into 100-mm Petri dish. At the time of transfection, media was aspirated and 6 ml of fresh media containing 12 μg of pIRES-hOAT and 60 μg of Cytofectin GSV cationic lipid (Glen Research, Sterling, Va.) was added to the cells. Following overnight incubation, selection of stable transformants started in phenol red-free F-12 nutrient mixture containing fetal bovine serum, penicillin and streptomycin as above, plus 1 mg/ml G418 (CLONTECH). […] For the PAH uptake assay, the cells were seeded into 12-well plates at the density of 2×10^5 cell/well. After 48 hours, growth media was aspirated and the cells were washed twice with phosphate buffered saline (PBS). […] Plates were washed with additional 0.5 ml/well of Triton X-100, the lysate and wash were combined, scintillation fluid was added, and the radioactivity counted.

[2] = substrate: Nc1ccn(C[C@@H](CO)OCP(=O)(O)O)c(=O)n1; experiment: cells, lysate or membranes; details: other: CHO-hOAT cells; pH 7.2; 37.0 °C
Experimental: as §2

Molecule | Vmax of uptake by CHO-hOAT (hOAT) | fold more cytotoxic in CHO-hOAT compared to CHO cells (CHO-hOAT cells) [fold] | accumulation in CHO-hOAT (in words) (hOAT) | other results
Nc1ncnc2c1ncn2CCOCP(=O)(O)O [ADV, Adefovir] | 390 pmol/10^6 cells | ~500 |  | accumulation in CHO-hOAT compared to CHO (hOAT; CHO-hOAT vs CHO cells): > 300 fold; fold more susceptible CHO-hOAT than CHO in the presence of PBC (CHO-hOAT cells; in the presence of 1 mM PBC): 3 fold
Nc1ccn(C[C@@H](CO)OCP(=O)(O)O)c(=O)n1 [CDV, cidofovir] | 1,110 pmol/10^6 cells | > 400 | efficiently accumulated | effect of PBC on cytotoxicity (in words) (CHO-hOAT cells; CHO-hOAT cells, with PBC): significantly reduced by PBC
Nc1ccn(C[C@H]2COP(=O)(O)CO2)c(=O)n1 [cCDV] |  |  | not | increase of cytotoxicity in CHO-hOAT cells (in words) (CHO-hOAT cells): increased to much lesser extent
hOAT (Homo sapiens) (protein) MAFNDLLQQVGGVGRFQQIQVTLVVLPLLLMASHNTLQNFTAAIPTHHCRPPADANLSKNGGLEVWLPRDRQGQPESCLRFTSPQWGLPFLNGTEANGTGATEPCTDGWIYDNSTFPSTIVTEWDLVCSHRALRQLAQSLYMVGVLLGAMVFGYLADRLGRRKVLILNYLQTAVSGTCAAFAPNFPIYCAFRLLSGMALAGISLNCMTLNVEWMPIHTRACVGTLIGYVYSLGQFLLAGVAYAVPHWRHLQLLVSAPFFAFFIYSWFFIESARWHSSSGRLDLTLRALQRVARINGKREEGAKLSMEVLRASLQKELTMGKGQASAMELLRCPTLRHLFLCLSMLWFATSFAYYGLVMDLQGFGVSIYLIQVIFGAVDLPAKLVGFLVINSLGRRPAQMAALLLAGICILLNGVIPQDQSIVRTSLAVLGKGCLAASFNCIFLYTGELYPTMIRQTGMGMGSTMARVGSIVSPLVSMTAELYPSMPLFIYGAVPVAASAVTVLLPETLGQPLPDTVQDLESRKGKQTRQQQEHQKYMVPLQASAQEKNGL |  |  |  | Km [1]: 23 µM; Km [2]: 70 µM
